Laboratory results: ChEMBL document CHEMBL1149069, “SB-202742, a novel beta-lactamase inhibitor isolated from Spondias mombin” (J Nat Prod, 1994)
The source made the active and inactive calls. The calls are words filed in the database; no cut-off is given here.

Biological target: Beta-lactamase TEM-2 (Escherichia coli) (UniProt P62593)
Test: Inhibition of Escherichia coli W3110 beta-lactamase TEM2 assessed as inhibition of nitrocefin hydrolysis at 1 ug/ml pre-incubated for 5 mins by microtiter plate assay

CC/C=C\C/C=C\C/C=C\CCCCCCCc1cccc(O)c1C(=O)O
Activity: Active
